According to PMC10534582, “A Pharmacokinetic Study of Sixteen Major Bioactive Components of Jinshui-Huanxian Granules in Pulmonary Fibrosis Model and Control Rats Using Orbitrap Fusion Mass Spectrometry” (Molecules, 2023):
Like-named read-outs stand apart in the source and are kept apart here.

Experiment: Pharmacokinetics of JHG components in control rats after intragastric administration of JHGs (plasma, Orbitrap Fusion MS)
Type: in vivo, Sprague Dawley (SD) rats
Settings: for AUC(0-inf) / AUC(0-t) / half-life / MRT last / MRT inf / Tmax / Cmax: male, rat, plasma, po; for MRT last: read-out: MRT(0-t); for MRT inf: read-out: MRT(0-∞); for Cmax: intragastric JHGs; for pharmacokinetic process (Cmax and AUCs versus dosage): low, medium, high doses of JHGs
In short: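 Male SD rats (240 ± 20 g), fasted 12 h, given JHGs intragastrically at 10.8, 21.6 or 43.2 g raw drug/kg/d. Tail-vein plasma sampled predose to 24 h, methanol-extracted with internal standard, analyzed by C18 LC–Orbitrap MS (ESI, SIM). Parameters from non-compartmental analysis, n = 6.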

[1] = Sprague Dawley, 5.7 g/kg/day, JHGs low dose 5.70 g/kg/d
[2] = Sprague Dawley, 5.7 g/kg/day, JHGs low dose 5.70 g/kg/d, read-out: Tmax
[3] = Sprague Dawley, 5.7 g/kg/day, low dose 5.70 g/kg/d, n=6 (1st of 3 stacked values)
[4] = Sprague Dawley, 11.41 g/kg/day, JHGs medium dose 11.41 g/kg/d
[5] = Sprague Dawley, 11.41 g/kg/day, JHGs medium dose 11.41 g/kg/d, read-out: Tmax
[6] = Sprague Dawley, 11.41 g/kg/day, medium dose 11.41 g/kg/d, n=6 (2nd of 3 stacked values)
[7] = Sprague Dawley, 22.81 g/kg/day, JHGs high dose 22.81 g/kg/d
[8] = Sprague Dawley, 22.81 g/kg/day, JHGs high dose 22.81 g/kg/d, read-out: Tmax
[9] = Sprague Dawley, 22.81 g/kg/day, high dose 22.81 g/kg/d, n=6 (3rd of 3 stacked values)
[10] = Sprague-Dawley, after administration of JHGs, read-out: Tmax of all dosages

Row | SMILES | Clearances (JHGs high dose 22.81 g/kg/d) [L/h/kg] | Vss (JHGs high dose 22.81 g/kg/d) [L] | Clearances (JHGs low dose 5.70 g/kg/d) [L/h/kg] | Vss (JHGs low dose 5.70 g/kg/d) [L] | Clearances (JHGs medium dose 11.41 g/kg/d) [L/h/kg] | Vss (JHGs medium dose 11.41 g/kg/d) [L] | AUC(0-inf) [1] [µg·h/mL] | AUC(0-t) [1] [µg·h/mL] | half-life [1] [h] | MRT last [1] [h] | MRT inf [1] [h] | Tmax [2] [h] | Cmax [3] [ng/mL] | AUC(0-inf) [4] [µg·h/mL] | AUC(0-t) [4] [µg·h/mL] | half-life [4] [h] | MRT last [4] [h] | MRT inf [4] [h] | Tmax [5] [h] | Cmax [6] [ng/mL] | further results
1 | O=c1cc(-c2ccc(O)cc2)oc2cc(OC3OC(CO)C(O)C(O)C3O)cc(O)c12 (centres unmarked) [Apigenin-7-glucoside] | 0.44 ± 0.07 | 6.6 ± 0.86 | 0.2 ± 0.04 | 3.94 ± 0.41 | 0.36 ± 0.08 | 5.33 ± 0.41 | 0.0291 ± 0.00632 | 0.0202 ± 0.00199 | 15.4 ± 4.12 | 8.84 ± 0.05 | 20.1 ± 4.89 | 1.83 ± 0.2 | 1.99 ± 0.17 | 0.0289 ± 0.00686 | 0.0222 ± 0.00268 | 11 ± 5.32 | 7.89 ± 0.21 | 15.3 ± 4.77 | 1.5 | 3.22 ± 0.44 | AUC(0-inf) [7]: 0.0465 ± 0.00755 µg·h/mL; AUC(0-t) [7]: 0.0365 ± 0.0053 µg·h/mL; half-life [7]: 9.62 ± 0.54 h; MRT last [7]: 8.8 ± 0.07 h; MRT inf [7]: 15 ± 0.61 h; Tmax [8]: 1.67 ± 0.29 h; Cmax [9]: 3.88 ± 0.42 ng/mL; Tmax [10]: ≤ 2 h
2 | O=c1cc(-c2ccc(O)c(O)c2)oc2cc(O[C@@H]3O[C@H](CO)[C@@H](O)[C@H](O)[C@H]3O)cc(O)c12 [Cynaroside] | 0.15 ± 0.01 | 1.35 ± 0.09 | 0.06 ± 0.01 | 0.6 ± 0.08 | 0.08 ± 0.01 | 0.83 ± 0.06 | 0.312 ± 0.026 | 0.29 ± 0.0244 | 5.75 ± 0.55 | 7.83 ± 0.02 | 9.56 ± 0.13 | 6 | 44 ± 5.61 | 0.433 ± 0.0435 | 0.402 ± 0.0392 | 5.75 ± 0.11 | 8.56 ± 0.09 | 10.3 ± 0.15 | 6 | 57.7 ± 5.09 | AUCs compared among the analytes: highest; correlation between CL, AUCs (AUC(0–t), AUC (0–∞)), t½, and dose: there was a correlation; pharmacokinetic process (Cmax and AUCs versus dosage): linear pharmacokinetic process; AUC(0-inf) [7]: 0.472 ± 0.0313 µg·h/mL; AUC(0-t) [7]: 0.438 ± 0.0276 µg·h/mL; half-life [7]: 5.1 ± 0.13 h; MRT last [7]: 7.51 ± 0.01 h; MRT inf [7]: 9.2 ± 0.11 h; Tmax [8]: 6 h; Cmax [9]: 79.5 ± 3.5 ng/mL; Tmax compared among the analytes (no matter the dosages): longest
3 | COc1ccc(-c2cc(=O)c3c(OC)c(OC)c(OC)c(OC)c3o2)cc1OC [Nobiletin] | 48.34 ± 15.08 | 882.05 ± 234.11 | 16.29 ± 3.64 | 287.56 ± 59.62 | 27.99 ± 8.59 | 642.56 ± 174.23 | 0.0211 ± 0.00695 | 0.0156 ± 0.00499 | 13.5 ± 1.64 | 8.63 ± 0.2 | 17.8 ± 2.23 | 0.75 | 2.51 ± 0.77 | 0.0223 ± 0.0068 | 0.0144 ± 0.00414 | 18.7 ± 2.51 | 8.19 ± 0.19 | 23.3 ± 3.85 | 0.75 | 3.02 ± 0.58 | t1/2 (JHGs high dose 22.81 g/kg/d): 16.19 ± 7.02 h; AUC(0-inf) [7]: 0.0259 ± 0.00957 µg·h/mL; AUC(0-t) [7]: 0.0179 ± 0.00456 µg·h/mL; MRT last [7]: 7.37 ± 0.43 h; MRT inf [7]: 19.5 ± 7.12 h; Tmax [8]: 0.75 h; Cmax [9]: 4.46 ± 1.06 ng/mL; Tmax [10]: ≤ 2 h
4 | COc1ccc(C(C)=O)c(O)c1 [Paeonol] | 141.44 ± 23.61 | 1831.33 ± 158.35 | 96.12 ± 25.03 | 1528.44 ± 295.01 | 160.75 ± 36.26 | 2003.58 ± 215.42 | 0.0556 ± 0.013 | 0.0424 ± 0.00894 | 13.2 ± 1.77 | 7.84 ± 0.03 | 16.1 ± 1.86 | 0.75 | 6.6 ± 1.48 | 0.0592 ± 0.0148 | 0.0486 ± 0.0101 | 11.1 ± 1.41 | 6.91 ± 0.23 | 12.7 ± 1.67 | 0.75 | 11.7 ± 2.03 | AUC(0-inf) [7]: 0.131 ± 0.0209 µg·h/mL; AUC(0-t) [7]: 0.106 ± 0.00695 µg·h/mL; half-life [7]: 9.02 ± 3.68 h; MRT last [7]: 7.77 ± 0.37 h; MRT inf [7]: 13.3 ± 3.52 h; Tmax [8]: 2 h; Cmax [9]: 15.7 ± 1.66 ng/mL; Tmax [10]: ≤ 2 h
5 | CC1=C2CC3C(CC(=O)C4CC(O)CCC43C)C2CCC12OC1CC(C)CNC1C2C (centres unmarked) [Peimisine] | 0.2 ± 0.03 | 3.96 ± 0.82 | 0.15 ± 0.04 | 3.26 ± 0.57 | 0.19 ± 0.05 | 3.98 ± 0.82 | 0.0195 ± 0.00573 | 0.0124 ± 0.00256 | 16.5 ± 2.09 | 9.16 ± 0.22 | 22.8 ± 3.24 | 4 | 1.49 ± 0.16 | 0.0269 ± 0.00793 | 0.0178 ± 0.00448 | 15.2 ± 1.25 | 9.14 ± 0.03 | 21.3 ± 1.78 | 4 | 2.08 ± 0.54 | pharmacokinetic process (Cmax and AUCs versus dosage): linear pharmacokinetic process; AUC(0-inf) [7]: 0.0489 ± 0.00974 µg·h/mL; AUC(0-t) [7]: 0.0349 ± 0.00814 µg·h/mL; half-life [7]: 11.4 ± 0.71 h; MRT last [7]: 11.34 ± 0.11 h; MRT inf [7]: 19.8 ± 0.92 h; Tmax [8]: 8 h; Cmax [9]: 2.35 ± 0.53 ng/mL
